Results published in publication PMC10449621, “Engineering cellular communication between light-activated synthetic cells and bacteria” (Nature Chemical Biology, 2023).
“And” between values parts separate entries of the source, which are not always exact repeats. Equal values may be shown once.

Experiments:
[1] = system: BjaRWT (B0034|ATG) receiver cells (pSB1A3–bjaR–gfp); assay: BjaR receiver cell AHSL dose-response (gfp reporter, plate reader); type: cell-based, E. coli XL10-Gold
From the text: Next, we set out to establish a unidirectional communication pathway by reconstituting the BjaI and BjaR QS machinery, separately, within synthetic cells and E. coli, respectively. As a starting point, IV-HSL-responsive receiver cells were created by transforming E. coli XL10-Gold cells with a reporter plasmid, pSB1A3–bjaR–gfp[28]. This plasmid contained a bjaR gene under the control of a constitutively active J23100 promoter and a gfp gene under the control of a pBjaR promoter. The pBjaR promoter was formed by substituting the lux-box of the pLux promoter with the BjaR-binding site (Supplementary Fig. 10). […] Although this reporter plasmid had been characterized previously, gfp expression was initiated with C4-HSL rather than the cognate ligand, IV-HSL. Thus, we first evaluated the dose–response relationship between synthetic IV-HSL (synthesis described in Methods) and GFP production by BjaR receiver cells. The cells were grown in M9 minimal media to an optical density at 600 nm (OD600) = 0.05, then transferred to a 96-well plate containing IV-HSL and incubated at 37 °C, 800 r.p.m., for 4 h. […] To elucidate the root cause of the high background fluorescence, a BjaRKO variant of the reporter plasmid was constructed. […] Therefore, the high OFF-state was attributed to BjaR-mediated transcription activation in the absence of IV-HSL, rather than host transcription factors recognizing the pBjaR promoter, or transcription factor independent gfp expression.
(§1) The BjaR reporter plasmids were retransformed into E. coli XL10-Gold cells for each experiment. A single colony was used to inoculate 5 ml LB + Amp media and incubated at 37 °C, 225 r.p.m. overnight. Overnight cultures were diluted 1/250 or 1/500 in 5 ml M9 minimal media + Amp and incubated at 37 °C, 225 r.p.m. for 3 h and 45 min (until OD600 = ~0.075). Cultures were diluted down to OD600 = 0.05 with M9 minimal media + Amp, and 200 µl was added to wells of a 96-well plate containing 1 µl IV-HSL dissolved in DMSO or 1 µl BjaI CFPS reactions (IV-HSL concentrations obtained from serial dilution from 63.2 µM to 632 pM; final DMSO concentration = 0.5%). Cells were incubated at 37 °C, 800 r.p.m., in a thermomixer with a heated lid for 4 h. Fluorescence and OD600 were measured in a Tecan M1000 infinite plate reader (excitation, 488 nm; emission, 510 nm; bandwidth, 5 nm; gain, 101 and z position, 21,311 µm). The dose–response curves were fitted to the function indicated by Eq. (1), where a = maximal fluorescence output, b = basal fluorescence output, X = concentration of AHSL, GFP = fluorescence at the given condition, EC50 = AHSL at 50% maximal fluorescence output and h = hill coefficient. EC50 and h were derived using the nonlinear regression model based on Eq. (1), in MATLAB. A summary of the dose–response data is available in Supplementary Table 1.1 GFP=b+a−b/1+10^logEC50−X×h

[2] = system: BjaRWT (B0034|CTG) receiver cells; assay: as above; type: cell-based, E. coli XL10-Gold
From the text: These findings are consistent with the predicted translation initiation rates of the respective sequences—translation from the BBa_B0033 RBS provides 1% of protein yield compared to the BBa_B0034 RBS, just as an CTG start codon provides 1% of the protein yield compared to an ATG start codon[30],[31]. This also offers support as to why the ON-state gfp expression level increased in variants with a tighter OFF-state; more cellular resources were available for GFP synthesis when comparatively fewer were allocated to BjaR synthesis. To elucidate the impact of the S107R variant on gene circuit performance, we introduced the S107R variant alone back into the bjaRWT gene, in the context of the BBa_B0033 RBS background.
as §1

CC(C)CC(=O)N[C@H]1CCOC1=O [IV-HSL, N-isovaleryl-L-homoserine lactone]
IV-HSL concentration at which gfp expression saturated ([1]; 4 h, 37 °C): ~ 100 nM | lowest IV-HSL concentration giving increased gfp expression ([1]; 4 h, 37 °C): 100 pM | EC50 ([1]; Escherichia coli, IV-HSL-activated gfp expression, M9 minimal media, 37 °C, 4 h): 1 ± 0.11 nM | GFP ([1]; Log([ASHL]) -6.5): 5520 and 5263 and 4853 | Mean normalised fluorescence ([1]; Log([ASHL]) -6.5): 51540.5 | Normalised fluorescence ([1]; Log([ASHL]) -6.5): 52896 and 49381.5 and 52343.9 | GFP ([1]; Log([ASHL]) -7): 4847 and 5318 and 4599 | Mean normalised fluorescence ([1]; Log([ASHL]) -7): 48761.2 | Normalised fluorescence ([1]; Log([ASHL]) -7): 46176.2 and 48745.4 and 51362.1 | GFP ([1]; Log([ASHL]) -7.5): 4806 and 4967 and 4256 | Mean normalised fluorescence ([1]; Log([ASHL]) -7.5): 50366.9 | Normalised fluorescence ([1]; Log([ASHL]) -7.5): 49622.2 and 48407.5 and 53071.1 | GFP ([1]; Log([ASHL]) -8): 4739 and 4412 and 4755 | Mean normalised fluorescence ([1]; Log([ASHL]) -8): 51222.6 | Normalised fluorescence ([1]; Log([ASHL]) -8): 48553.6 and 53423.6 and 51690.6 | GFP ([1]; Log([ASHL]) -8.5): 4235 and 3971 and 4223 | Mean normalised fluorescence ([1]; Log([ASHL]) -8.5): 46308.3 | Normalised fluorescence ([1]; Log([ASHL]) -8.5): 43174.3 and 50090 and 45660.8 | GFP ([1]; Log([ASHL]) -9): 3046 and 2749 and 2957 | Mean normalised fluorescence ([1]; Log([ASHL]) -9): 32989.1 | Normalised fluorescence ([1]; Log([ASHL]) -9): 31098.3 and 35762 and 32107 | GFP ([1]; Log([ASHL]) -9.5): 2089 and 1773 and 1816 | Mean normalised fluorescence ([1]; Log([ASHL]) -9.5): 20544.4 | Normalised fluorescence ([1]; Log([ASHL]) -9.5): 19459.5 and 23021.7 and 19152 | GFP ([1]; Log([ASHL]) -10): 1495 and 1301 and 1477 | Mean normalised fluorescence ([1]; Log([ASHL]) -10): 15546.1 | Normalised fluorescence ([1]; Log([ASHL]) -10): 14827.9 and 16425.7 and 15384.6 | GFP ([1]; Log([ASHL]) -10.5): 1424 and 1254 and 1414 | Mean normalised fluorescence ([1]; Log([ASHL]) -10.5): 15128.3 | Normalised fluorescence ([1]; Log([ASHL]) -10.5): 14176.3 and 15945.9 and 15262.6 | GFP ([1]; Log([ASHL]) -11): 1414 and 1258 and 1391 | Mean normalised fluorescence ([1]; Log([ASHL]) -11): 15383.1 | Normalised fluorescence ([1]; Log([ASHL]) -11): 14419.4 and 15744.7 and 15985.4 | GFP ([1]; Log([ASHL]) -11.5): 1447 and 1104 and 1274 | Mean normalised fluorescence ([1]; Log([ASHL]) -11.5): 15262.1 | Normalised fluorescence ([1]; Log([ASHL]) -11.5): 15049.3 and 14629.6 and 16107.4 | EC50 ([2]; Escherichia coli, IV-HSL-activated gfp expression): 2.68 ± 0.48 nM | hill coefficient ([2]; IV-HSL dose-response curve): 1.41 | GFP ([2]; Log([ASHL]) -6.5): 43330 and 36104 and 38058 | Mean normalised fluorescence ([2]; Log([ASHL]) -6.5): 201726 | Normalised fluorescence ([2]; Log([ASHL]) -6.5): 210214 and 194525 and 200438 | GFP ([2]; Log([ASHL]) -7): 48602 and 34441 and 36003 | Mean normalised fluorescence ([2]; Log([ASHL]) -7): 195635 | Normalised fluorescence ([2]; Log([ASHL]) -7): 221814 and 183269 and 181822 | GFP ([2]; Log([ASHL]) -7.5): 42248 and 34562 and 36913 | Mean normalised fluorescence ([2]; Log([ASHL]) -7.5): 179671 | Normalised fluorescence ([2]; Log([ASHL]) -7.5): 188397 and 176029 and 174588 | GFP ([2]; Log([ASHL]) -8): 35155 and 35886 and 43108 | Mean normalised fluorescence ([2]; Log([ASHL]) -8): 165401 | Normalised fluorescence ([2]; Log([ASHL]) -8): 168235 and 168127 and 159840 | GFP ([2]; Log([ASHL]) -8.5): 36208 and 37675 and 33945 | Mean normalised fluorescence ([2]; Log([ASHL]) -8.5): 139606 | Normalised fluorescence ([2]; Log([ASHL]) -8.5): 151871 and 150220 and 116729 | Mean normalised fluorescence ([2]; Log([ASHL]) -9): 82973.4 | Mean normalised fluorescence ([2]; Log([ASHL]) -9.5): 25740.3 | Mean normalised fluorescence ([2]; Log([ASHL]) -10): 6739.8 | GFP ([2]; Log([ASHL]) -10.5): 896 and 846 and 722 | Mean normalised fluorescence ([2]; Log([ASHL]) -10.5): 2692.26 | Normalised fluorescence ([2]; Log([ASHL]) -10.5): 2989.77 and 2763.44 and 2323.58 | GFP ([2]; Log([ASHL]) -11): 668 and 631 and 690 | Mean normalised fluorescence ([2]; Log([ASHL]) -11): 2167.6 | Normalised fluorescence ([2]; Log([ASHL]) -11): 2233.16 and 2007.95 and 2261.7 | GFP ([2]; Log([ASHL]) -11.5): 630 and 671 and 595 | Mean normalised fluorescence ([2]; Log([ASHL]) -11.5): 2035.58 | Normalised fluorescence ([2]; Log([ASHL]) -11.5): 2037.65 and 2202.61 and 1866.48
